ChEMBL document CHEMBL1201862, “PubChem BioAssay data set” (2004)
Active and inactive are the calls of the source.

Columns and labels:
[1] = biological target: T1, Microphthalmia-associated transcription factor (Homo sapiens, UniProt O75030); assay: TRPM1 promoter luciferase signal decrease, dose response, MITF inhibitor project, cell-based, SK-MEL-5, cherry-picked, set 3 (AID 493073); type: functional
T1 sequence (O75030 whole entry): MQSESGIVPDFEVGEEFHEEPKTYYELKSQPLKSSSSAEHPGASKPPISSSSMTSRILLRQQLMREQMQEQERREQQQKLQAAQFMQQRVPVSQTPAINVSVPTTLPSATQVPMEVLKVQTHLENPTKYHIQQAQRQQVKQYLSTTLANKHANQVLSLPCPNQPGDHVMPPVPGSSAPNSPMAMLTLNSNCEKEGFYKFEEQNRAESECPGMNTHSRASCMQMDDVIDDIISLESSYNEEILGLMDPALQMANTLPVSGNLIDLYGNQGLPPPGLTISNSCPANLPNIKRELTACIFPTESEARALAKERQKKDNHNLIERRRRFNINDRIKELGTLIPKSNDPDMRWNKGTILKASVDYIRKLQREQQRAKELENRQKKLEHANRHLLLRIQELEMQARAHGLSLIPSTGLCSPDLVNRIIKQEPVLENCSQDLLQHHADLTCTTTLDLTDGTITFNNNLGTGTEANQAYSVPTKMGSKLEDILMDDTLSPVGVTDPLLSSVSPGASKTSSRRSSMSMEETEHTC

[2] = HepG2 cell cytotoxicity, dose response, cytotoxicity control for non-replicating M. tuberculosis project (AID 489018); type: functional; settings: Mycobacterium tuberculosis
[3] = biological target: T2, High affinity choline transporter 1 (Homo sapiens, UniProt Q9GZV3); assay: CHT inhibitors, dose response, cell-based, 5-point CRC, membrane potential dye (AID 504840); type: functional
T2 sequence (Q9GZV3 whole entry): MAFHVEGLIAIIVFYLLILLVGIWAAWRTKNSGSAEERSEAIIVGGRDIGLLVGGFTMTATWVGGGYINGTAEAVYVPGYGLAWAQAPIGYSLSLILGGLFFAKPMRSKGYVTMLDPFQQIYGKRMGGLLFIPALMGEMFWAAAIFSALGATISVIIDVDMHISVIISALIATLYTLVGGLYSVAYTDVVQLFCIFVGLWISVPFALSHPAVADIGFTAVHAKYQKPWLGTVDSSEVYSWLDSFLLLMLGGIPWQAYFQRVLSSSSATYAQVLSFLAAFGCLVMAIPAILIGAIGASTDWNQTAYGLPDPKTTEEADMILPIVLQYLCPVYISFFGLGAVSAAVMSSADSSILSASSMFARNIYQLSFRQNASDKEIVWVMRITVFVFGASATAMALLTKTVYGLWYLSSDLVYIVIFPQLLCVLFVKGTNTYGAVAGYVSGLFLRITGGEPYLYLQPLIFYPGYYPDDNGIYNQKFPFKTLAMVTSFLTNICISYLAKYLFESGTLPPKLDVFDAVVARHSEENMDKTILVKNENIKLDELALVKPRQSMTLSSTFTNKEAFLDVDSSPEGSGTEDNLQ

[4] = Luminescence Cell-Based Dose Confirmation HTS to Identify Inhibitors of Platelet Dense Granule Release. [Related pubchem assays: 1663 (Primary HTS), 1678 (Summary of Project)]; type: functional
[5] = cytotoxicity in HEK-293T cells, dose response, cytotoxicity control for BCR NF-kB inhibitor project, luminescence, B-cell screen hits (AID 489021); type: functional, cell-based;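 further: HEK-293T cells carrying an NF-kB luciferase reporter; cells exposed to compound for about 14 hours before viability readout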
[6] = biological target: Luciferin 4-monooxygenase (Photinus pyralis, UniProt P08659); assay: firefly luciferase enzyme inhibitors, dose response, biochemical, luminescence (AID 1891)
[7] = biological target: T3, Calpain-2 catalytic subunit (Sus scrofa, UniProt P43367); assay: pig calpain II inhibitor potency, dose response, biochemical, fluorogenic peptide substrate (AID 1420); type: functional
T3 sequence (P43367 whole entry): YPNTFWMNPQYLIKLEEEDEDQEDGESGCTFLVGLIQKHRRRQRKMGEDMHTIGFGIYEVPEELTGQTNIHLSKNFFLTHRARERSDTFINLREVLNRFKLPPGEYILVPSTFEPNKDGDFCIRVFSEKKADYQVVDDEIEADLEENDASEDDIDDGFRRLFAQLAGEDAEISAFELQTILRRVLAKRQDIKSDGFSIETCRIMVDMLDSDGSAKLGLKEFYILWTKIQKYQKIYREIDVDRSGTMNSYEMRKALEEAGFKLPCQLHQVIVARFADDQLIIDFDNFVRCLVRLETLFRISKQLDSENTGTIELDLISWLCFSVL

[8] = Luminescence Cell-Based Dose Response HTS to Identify Inhibitors of 5'UTR Stem-Loop Driven Prion Protein mRNA Translation in H4 Neuroglioblastoma Cells. [Related pubchem assays: 1827 (Project Summary), 1813 (Primary HTS)]; type: functional
[9] = inhibitors of SNCA 5'UTR-driven reporter translation, confirmation, H4 neuroglioma cells, luminescence (AID 1988); type: functional, cell-based
[10] = inhibitors of firefly luciferase expression or activity, dose response, H4 neuroglioma cells, luminescence (AID 1990); type: functional, cell-based
[11] = THP-1 cell cytotoxicity, dose response, cytotoxicity control for non-replicating M. tuberculosis project (AID 489025); type: functional
[12] = cells; type: functional

Luciferin 4-monooxygenase, sequence (P08659 whole entry): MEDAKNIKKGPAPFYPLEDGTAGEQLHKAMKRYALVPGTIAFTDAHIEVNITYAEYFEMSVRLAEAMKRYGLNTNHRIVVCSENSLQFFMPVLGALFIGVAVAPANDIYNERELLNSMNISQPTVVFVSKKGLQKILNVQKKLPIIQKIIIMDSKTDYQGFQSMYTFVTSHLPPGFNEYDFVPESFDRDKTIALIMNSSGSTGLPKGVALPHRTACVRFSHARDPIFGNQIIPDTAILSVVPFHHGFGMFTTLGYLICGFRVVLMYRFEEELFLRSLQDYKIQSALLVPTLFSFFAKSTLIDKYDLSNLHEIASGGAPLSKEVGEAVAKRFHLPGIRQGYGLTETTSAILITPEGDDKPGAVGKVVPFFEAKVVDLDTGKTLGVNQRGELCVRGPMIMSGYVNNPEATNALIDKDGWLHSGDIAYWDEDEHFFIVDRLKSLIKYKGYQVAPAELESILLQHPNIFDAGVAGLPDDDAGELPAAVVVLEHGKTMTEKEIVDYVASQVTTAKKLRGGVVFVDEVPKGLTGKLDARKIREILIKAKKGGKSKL

For `COc1cc2nc(SCC(=O)NCc3ccco3)n(Cc3ccc(Cl)cc3)c(=O)c2cc1OC`, which AC50 [1] is on record?
The AC50 was 13.2 µM (active).

For `Nc1cccn2c(-c3ccc(Cl)cc3)cnc12`, which CC50 [2] is on record?
The CC50 was 19.1 µM (active).

With `O=S(=O)(c1ccc(N2CCCC2)nc1)N1CCCC1` as the compound, how does the IC50 [3] read?
The IC50 was 8.93 µM (active).

Which IC50 [3] does the source give for `Cc1nn(-c2ccccc2)c(C)c1C(=O)OCC(=O)NC(=O)NC1CCCC1` here?
The IC50 was 14.5 µM (active).

Which IC50 [3] does the source give for `Cc1ccc(NC(S)=NNC(=O)C2CC2c2ccc(C)cc2)cc1` (stereo not drawn) here?
The IC50 was 13.2 µM (active).

For `COC(=O)/C(=C/c1c[nH]c2ccccc12)[N+](=O)[O-]`, which IC50 [3] is on record?
Its IC50 is 0.724 µM (active).

With `CCN1C(=O)Nc2cccc3cccc1c23` as the compound, how does the EC50 [4] read?
Its EC50 is 7.12 µM (active).

And the IC50 [5]?
The IC50 was > 80 µM (inactive).

What about the EC50 [6] of the same compound?
Its EC50 is > 112 µM (not active).

What does the source list for `O=C(CCCN1C(=O)/C(=C/c2ccccc2Cl)SC1=S)NNC(=O)c1ccc(Cl)cc1Cl`?
IC50 [7]: > 50 µM (not active); EC50 [8]: 7.86 µM (active); EC50 [4]: > 112 µM (not active); EC50 [9]: 1.03 µM (active); IC50 [5]: > 80 µM (inactive); EC50 [10]: 0.675 µM (active); EC50 [6]: > 112 µM (not active)

Which AC50 [1] does the source give for `O=C(NC(=S)NCc1ccccc1)c1ccccc1` here?
Its AC50 is 22.1 µM (active).

What does the source list for `Cc1c(CCC(=O)N2CCC[C@H]2C(=O)O)c(=O)oc2cc3oc4c(c3cc12)CCCC4`?
EC50 [9]: 10.2 µM (active); IC50 [5]: > 80 µM (inactive); EC50 [10]: 8.13 µM (active)

Which CC50 [11] does the source give for `CN(C)CCCn1c(=O)n(C2CCCCC2)c(=O)c2c3c(sc21)CCCCC3` here?
The CC50 was 23.8 µM (active).

And the IC50 [12]?
The IC50 was 24.9 µM (active).

And the IC50 [3]?
Its IC50 is 8.71 µM (active).
